Experimental data from the supplement of paper PMC11061612.

What was measured:
[1] = compound: C=CCn1c(=O)c2cnc(Nc3ccc(N4CCN(C)CC4)cc3)nc2n1-c1cccc(C(C)(C)O)n1 [AZD1775]; details: max 3 µM
How it was run: (§1)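 Cancer cell lines were seeded in 1536-well plates in 7.5 μl DMEM/F12 or RPMI with 10% FBS, held 24 hours at 37°C and 5% CO2, then dosed for 72 hours (final DMSO typically 0.2%). Viability was read by CellTiter-Glo 2.0 luminescence and scaled between blank-well and DMSO-well means. The single-agent IC50 comes from dose responses fitted to a two-parameter logistic curve with a non-linear mixed effects model.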

[2] = compound: CS(=O)(=O)CCNCc1ccc(-c2ccc3ncnc(Nc4ccc(OCc5cccc(F)c5)c(Cl)c4)c3c2)o1 [Lapatinib]; details: max 10 µM
How it was run: as §1

[3] = compound: C1CN(CCC1(C(=O)N[C@@H](CCO)C2=CC=C(C=C2)Cl)N)C3=NC=NC4=C3C=CN4 [Capivasertib]; details: max 10 µM
How it was run: as §1

[4] = compound: COc1cc(Nc2ncc3c(n2)-c2ccc(Cl)cc2C(c2c(F)cccc2OC)=NC3)ccc1C(=O)O [Alisertib]; details: max 10 µM
How it was run: as §1

[5] = compound: C[C@@H]1COCCN1C2=NC(=NC(=C2)C3(CC3)[S@](=N)(=O)C)C4=C5C=CNC5=NC=C4 [AZD6738]; details: max 10 µM
How it was run: as §1

[6] = compound: NC1(c2ccc(-c3nc4ccn5c(=O)[nH]nc5c4cc3-c3ccccc3)cc2)CCC1 [MK-2206]; details: max 10 µM
How it was run: as §1

[7] = compound: CC(=O)c1c(C)c2cnc(Nc3ccc(N4CCNCC4)cn3)nc2n(C2CCCC2)c1=O [Palbociclib]; details: max 10 µM
How it was run: as §1

[8] = compound: CCc1c2c(nc3ccc(O)cc13)-c1cc3c(c(=O)n1C2)COC(=O)[C@]3(O)CC [SN-38]; details: max 0.3 µM
How it was run: as §1

[9] = compound: CCN(CCO)CCCOc1ccc2c(Nc3cc(CC(=O)Nc4cccc(F)c4)[nH]n3)ncnc2c1 [AZD2811]; details: max 1 µM
How it was run: as §1

[10] = compound: CC1=C(C(=CC=C1)Cl)NC(=O)C2=CN=C(S2)NC3=CC(=NC(=N3)C)N4CCN(CC4)CCO [Dasatinib]; details: max 2 µM
How it was run: as §1

[11] = compound: COc1nnc2ccc(N3CCC(c4ccc(OCCN5CCN(C)C(=O)[C@H]5C)cc4)CC3)nn12 [AZD5153]; details: max 1 µM
How it was run: as §1

[12] = compound: C[C@@H](Oc1cc(-c2cnn(C3CCNCC3)c2)cnc1N)c1c(Cl)ccc(F)c1Cl [Crizotinib]; details: max 10 µM
How it was run: as §1

[13] = compound: CN(C)CCCOc1ccc(-c2ccc3ncc4c(c3c2)n(C2CCOCC2)c(=O)n4C)cn1 [AZD0156]; details: max 3 µM
How it was run: as §1

[14] = compound: CC1=CN2[C@@H](C1)C=NC3=CC(=C(C=C3C2=O)OC)OCCCCCOC4=C(C=C5C(=C4)N=C[C@@H]6CC(=CN6C5=O)C)OC [SG3199]; details: max 0.001 µM
How it was run: as §1

[15] = compound: COc1cc2ncnc(Nc3ccc(F)c(Cl)c3)c2cc1OCCCN1CCOCC1 [Gefitinib]; details: max 10 µM
How it was run: as §1

[16] = compound: Cc1nc(-c2cn3c(n2)-c2ccc(-c4cnn(C(C)(C)C(N)=O)c4)cc2OCC3)n(C(C)C)n1 [Taselisib]; details: max 10 µM
How it was run: as §1

[17] = compound: Cn1cnc2c(F)c(Nc3ccc(Br)cc3Cl)c(C(=O)NOCCO)cc21 [Selumetinib]; details: max 10 µM
How it was run: as §1

[18] = compound: C[C@@H](Nc1cc(F)cc(F)c1)c1cc(C(=O)N(C)C)cc2c(=O)cc(N3CCOCC3)oc12 [AZD8186]; details: max 3 µM
How it was run: as §1

[19] = compound: COc1cccc(OCCCN)c1-c1cc(Nc2cnc(C#N)cn2)n[nH]1 [Prexasertib]; details: max 1 µM
How it was run: as §1

[20] = compound: C[C@@H](c1ccc2nccn2c1)n1nnc2ncc(-c3cnn(C)c3)nc21 [Savolitinib]; details: max 1 µM
How it was run: as §1

[21] = compound: CC(C)n1c(=O)n(C)c2cnc3cc(F)c(-c4ccc(OCCCN5CCCCC5)nc4)cc3c21 [AZD1390]; details: max 0.3 µM
How it was run: as §1

[22] = compound: Cc1cc2ncnn2cc1Nc1ncc2c(n1)n(C1CCOCC1)c(=O)n2C [AZD7648]; details: max 10 µM
How it was run: as §1

[23] = compound: Cc1c2c(nn1C)CSCc1cc(n(C)n1)CSc1cc(c3ccccc3c1)OCCCc1c(C(=O)O)n(C)c3c-2c(Cl)ccc13 [AZD5991]; details: max 1 µM
How it was run: as §1

[24] = compound: O=C(c1cc(Cc2n[nH]c(=O)c3ccccc23)ccc1F)N1CCN(C(=O)C2CC2)CC1 [Olaparib]
How it was run: as §1

[25] = compound: CC1(C)CCC(CN2CCN(c3ccc(C(=O)NS(=O)(=O)c4ccc(NCC5CCOCC5)c([N+](=O)[O-])c4)c(Oc4cnc5[nH]ccc5c4)c3)CC2)=C(c2ccc(Cl)cc2)C1 [Venetoclax]; details: max 1 µM
How it was run: as §1

[26] = compound: COc1cccc2c1C(=O)c1c(O)c3c(c(O)c1C2=O)C[C@@](O)(C(=O)CO)C[C@@H]3O[C@H]1C[C@H](N)[C@H](O)[C@H](C)O1 [Doxorubicin]; details: max 1 µM
How it was run: as §1

[27] = compound: CC(=O)Nc1cccc(-n2c(=O)n(C3CC3)c(=O)c3c(Nc4ccc(I)cc4F)n(C)c(=O)c(C)c32)c1 [Trametinib]; details: max 1 µM
How it was run: as §1

[28] = compound: CN(CC[C@H](CSC1=CC=CC=C1)NC2=C(C=C(C=C2)S(=O)(=O)NC(=O)C3=CC=C(C=C3)N4CCC(CC4)[C@H](C5=CC=CC=C5C6=CC=C(C=C6)Cl)O)S(=O)(=O)C(F)(F)F)CCO [AZD4320]; details: max 1 µM
How it was run: as §1

Cell Line	IC50, cell viability 72 h [1] [nM]	IC50, cell viability 72 h [2] [nM]	IC50, cell viability 72 h [3] [nM]	IC50, cell viability 72 h [4] [nM]	IC50, cell viability 72 h [5] [nM]	IC50, cell viability 72 h [6] [nM]	IC50, cell viability 72 h [7] [nM]	IC50, cell viability 72 h [8] [nM]	IC50, cell viability 72 h [9] [nM]	IC50, cell viability 72 h [10] [nM]	IC50, cell viability 72 h [11] [nM]	IC50, cell viability 72 h [12] [nM]	IC50, cell viability 72 h [13] [nM]	IC50, cell viability 72 h [14] [nM]	IC50, cell viability 72 h [15] [nM]	IC50, cell viability 72 h [16] [nM]	IC50, cell viability 72 h [17] [nM]	IC50, cell viability 72 h [18] [nM]	IC50, cell viability 72 h [19] [nM]	IC50, cell viability 72 h [20] [nM]	IC50, cell viability 72 h [21] [nM]	IC50, cell viability 72 h [22] [nM]	IC50, cell viability 72 h [23] [nM]	IC50, cell viability 72 h ([24]; max 10 µM) [nM]	IC50, cell viability 72 h [25] [nM]	IC50, cell viability 72 h [26] [nM]	IC50, cell viability 72 h [27] [nM]	IC50, cell viability 72 h [28] [nM]	IC50, cell viability 72 h ([24]; max 3 µM) [nM]
A2058 (Melanoma)	1230	8410	> 10000	1220	> 10000	> 10000	> 10000	> 300	> 1000	> 2000	656	8250	> 3000	> 1	> 10000	6330	> 10000	> 3000	> 1000	> 1000	> 300	> 10000	> 1000	> 10000	> 1000	> 1000	236	> 1000	–
LN-229 (Glioblastoma)	> 3000	> 10000	> 10000	> 10000	> 10000	> 10000	> 10000	> 300	> 1000	> 2000	> 1000	> 10000	> 3000	> 1	> 10000	> 10000	> 10000	> 3000	70.1	> 1000	> 300	> 10000	> 1000	> 10000	> 1000	> 1000	> 1000	> 1000	–
LXF-289 (Lung Adenocarcinoma)	814	4860	> 10000	3390	> 10000	–	> 10000	> 300	> 1000	171	377	4530	> 3000	> 1	> 10000	> 10000	> 10000	> 3000	240	> 1000	> 300	> 10000	> 1000	> 10000	> 1000	> 1000	> 1000	> 1000	–
NCI-H23 (Lung Adenocarcinoma)	381	> 10000	> 10000	9990	3270	> 10000	> 10000	102	> 1000	> 2000	208	5950	> 3000	> 1	> 10000	> 10000	> 10000	> 3000	59.6	> 1000	> 300	> 10000	319	> 10000	> 1000	> 1000	348	> 1000	–
OAW-42 (Ovarian Carcinoma)	> 3000	> 10000	> 10000	4550	> 10000	3000	> 10000	29.5	> 1000	909	> 1000	> 10000	> 3000	–	> 10000	441	> 10000	> 3000	463	> 1000	> 300	> 10000	> 1000	–	> 1000	–	> 1000	> 1000	> 3000
RERF-LC-Sq1 (Squamous Cell Lung Carcinoma)	681	2640	1600	> 10000	4110	–	6600	167	> 1000	> 2000	768	> 10000	> 3000	> 1	3120	427	> 10000	> 3000	36.6	> 1000	> 300	> 10000	> 1000	> 10000	> 1000	1000	179	> 1000	–
SF268 (Low Grade Glioma)	> 3000	> 10000	> 10000	7280	> 10000	–	> 10000	23.5	> 1000	> 2000	> 1000	> 10000	> 3000	> 1	> 10000	> 10000	> 10000	> 3000	643	> 1000	> 300	> 10000	> 1000	> 10000	> 1000	> 1000	> 1000	> 1000	–
SU-DHL-10 (B-Cell Non-Hodgkin's Lymphoma)	586	4970	505	684	2620	–	435	13	29.2	62.8	9.5	2480	> 3000	> 1	7020	1340	> 10000	1080	27.2	> 1000	> 300	> 10000	25.5	> 10000	> 1000	442	> 1000	> 1000	–
WM278 (Melanoma)	> 3000	> 10000	> 10000	> 10000	> 10000	–	> 10000	200	> 1000	> 2000	> 1000	> 10000	> 3000	> 1	> 10000	> 10000	3570	> 3000	413	> 1000	> 300	> 10000	> 1000	> 10000	> 1000	> 1000	85.8	> 1000	–
WM793B (Melanoma)	1930	> 10000	> 10000	> 10000	3100	–	> 10000	22.8	> 1000	> 2000	493	> 10000	> 3000	> 1	> 10000	2800	7020	> 3000	27.8	> 1000	> 300	> 10000	> 1000	> 10000	> 1000	471	175	> 1000	–
